From PubChem BioAssay (NCI)
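Briefly, cells in 96-well plates were exposed to five compound concentrations for 48 h, and endpoints were estimated by linear interpolation. TGI denotes the concentration required for complete inhibition of growth.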

Key:
Experiment in all cases: NCI tumour cell line growth inhibition, 48 h
RPMI-8226 leukemia = system: RPMI-8226 leukemia
K-562 leukemia = system: K-562 leukemia
NCI-H23 lung = system: NCI-H23 lung
NCI/ADR-RES ovarian = system: NCI/ADR-RES ovarian
MDA-MB-231 breast = system: MDA-MB-231 breast
IGROV1 ovarian = system: IGROV1 ovarian
A549 NSCLC = system: A549 NSCLC
SN12C renal = system: SN12C renal
MDA-MB-435 = system: MDA-MB-435
SK-OV-3 ovarian = system: SK-OV-3 ovarian
OVCAR-8 ovarian = system: OVCAR-8 ovarian
CCRF-CEM leukemia = system: CCRF-CEM leukemia
EKVX NSCLC = system: EKVX NSCLC
HOP-92 NSCLC = system: HOP-92 NSCLC
MOLT-4 leukemia = system: MOLT-4 leukemia
OVCAR-3 ovarian = system: OVCAR-3 ovarian
CAKI-1 renal = system: CAKI-1 renal
RXF 393 renal = system: RXF 393 renal
MDA-N = system: MDA-N
KM12 colon = system: KM12 colon
NCI-H460 lung = system: NCI-H460 lung
MALME-3M melanoma = system: MALME-3M melanoma
HCT-15 colon = system: HCT-15 colon
SK-MEL-2 melanoma = system: SK-MEL-2 melanoma
M14 melanoma = system: M14 melanoma
A498 renal = system: A498 renal
786-0 renal = system: 786-0 renal
ACHN renal = system: ACHN renal
SNB-19 CNS = system: SNB-19 CNS
PC-3 prostate = system: PC-3 prostate
UO-31 renal = system: UO-31 renal
HT29 colon = system: HT29 colon
TK-10 renal = system: TK-10 renal
SW-620 colon = system: SW-620 colon
U251 CNS = system: U251 CNS
UACC-62 melanoma = system: UACC-62 melanoma
HOP-62 NSCLC = system: HOP-62 NSCLC
BT-549 breast = system: BT-549 breast
NCI-H522 lung = system: NCI-H522 lung
SK-MEL-5 melanoma = system: SK-MEL-5 melanoma
HCT-116 colon = system: HCT-116 colon
DU-145 prostate = system: DU-145 prostate
SR leukemia = system: SR leukemia
HCC-2998 colon = system: HCC-2998 colon
COLO 205 colon = system: COLO 205 colon
UACC-257 melanoma = system: UACC-257 melanoma
SF-295 CNS = system: SF-295 CNS
HL-60(TB) leukemia = system: HL-60(TB) leukemia
OVCAR-5 ovarian = system: OVCAR-5 ovarian
SK-MEL-28 melanoma = system: SK-MEL-28 melanoma
MCF7 breast = system: MCF7 breast
T-47D breast = system: T-47D breast
LOX IMVI melanoma = system: LOX IMVI melanoma
HS 578T breast = system: HS 578T breast
SF-268 CNS = system: SF-268 CNS
SF-539 CNS = system: SF-539 CNS
OVCAR-4 ovarian = system: OVCAR-4 ovarian
SNB-75 CNS = system: SNB-75 CNS
NCI-H226 lung = system: NCI-H226 lung

Measured: TGI

O=C(/C=C/c1ccc2c(c1)OCO2)Cc1nc2ncccc2[nH]c1=O
not listed: OVCAR-4 ovarian | SNB-75 CNS | NCI-H226 lung
> 100 µM: all other assays above

Cc1ccccc1OC(C)C(=O)NN1C(=O)CSC1c1ccccc1 (centres undefined)
25.3 µM: MOLT-4 leukemia
48.8 µM: SR leukemia
not listed: CCRF-CEM leukemia | HL-60(TB) leukemia
> 100 µM: all other assays above

COC(=O)C1CC(C=[N+](C)C)=C(SC)N1C(=O)OCc1ccccc1 (centres undefined)
not listed: SN12C renal | CCRF-CEM leukemia | HL-60(TB) leukemia | LOX IMVI melanoma | SF-539 CNS | NCI-H226 lung
> 100 µM: all other assays above

Cc1ccccc1C(=N)c1ccccc1Cc1cccc2ccccc12
27.3 µM: MALME-3M melanoma
33.9 µM: U251 CNS
42.5 µM: DU-145 prostate
43.5 µM: HOP-62 NSCLC
98.9 µM: SK-OV-3 ovarian
48.6 µM: MCF7 breast
26.3 µM: HS 578T breast
88.6 µM: NCI/ADR-RES ovarian
38.4 µM: T-47D breast
41 µM: 786-0 renal
68.2 µM: SF-268 CNS
41.2 µM: SR leukemia
31.9 µM: LOX IMVI melanoma
20.3 µM: RXF 393 renal
33.3 µM: RPMI-8226 leukemia
46.9 µM: HCT-116 colon
39.5 µM: SN12C renal
26.6 µM: OVCAR-3 ovarian
92 µM: BT-549 breast
54.1 µM: SK-MEL-28 melanoma
35.1 µM: SK-MEL-2 melanoma
34.5 µM: SK-MEL-5 melanoma
76.9 µM: COLO 205 colon
62.5 µM: SF-295 CNS
52.9 µM: MDA-MB-435
42.3 µM: MOLT-4 leukemia
65.7 µM: MDA-N
41.9 µM: KM12 colon
35.4 µM: SF-539 CNS
42.7 µM: CCRF-CEM leukemia
45 µM: NCI-H226 lung
38.6 µM: NCI-H460 lung | UACC-62 melanoma
36.7 µM: HCC-2998 colon
54.8 µM: HOP-92 NSCLC
42.2 µM: HL-60(TB) leukemia
56.1 µM: HCT-15 colon
34.6 µM: NCI-H522 lung
66 µM: SW-620 colon
95 µM: A498 renal
not listed: SNB-75 CNS
> 100 µM: all other assays above
